Assays:
Water solubility = type: physicochemical
Text: The chemical structure of CNS-102 is shown. We have characterized CNS-102 (MW 330) by ^1H NMR, LC, and ESI mass spectrometry and no evidence of cis isomer was found. […] Such can enable CNS-102 to cross the blood brain barrier.

[1] = system: HSP70 expression in Neuro2A cells; assay: HSP70 expression by Western blot in treated Neuro2A cells (Assay 1a/1b); type: cell-based, murine; conditions: for HSP70 Expression, HSP70 by Western Blot: Neuro2A cells, Assay 1a screen at 1 μM
Protocol: HSP70 expression in neuro2A cells treated with CNS-102 analogs are examined, using Western blot analysis. An increased expression of HSP70 will indicate the candidate molecule has the prerequisite activity. This assay has a Z factor of […] and a CV of 11% for CNS-102 at 1 nM to 100 nM.
A preliminary screen and quantitative performance evaluation, and a confirmatory neuroprotective assay are developed from a model of motor neuron dysfunction in a PNS cell line.
The overall strategy, therefore, is to use a sequence of assays, each of which is targeted to address a specific aspect of the disease with the goal of identifying candidates having multiple therapeutic capabilities. These assays are chosen such that a failure to perform at any stage is expected to be fatal to the candidate's suitability as a viable ALS treatment. To this end, the following four therapeutic capabilities and corresponding assays were chosen as shown in the list below. The advancement criteria, as well as assay design where relevant, are also presented. • 1. In some embodiments, the candidates increase HSP70 expression in target cells. The initial screen (pass/fail, Assay 1a) and quantitative evaluation (EC50, Assay 1b) of candidates will use a HSP70 expression assay by Western blot on cellular extracts of treated Neuro2A cells. The screen, Assay 1a, is conducted at a single concentration, requiring a specific level of activity to pass into Assay 1b, the quantitative dose/response determination of the EC50. Only those candidates having an ECK, below 10 nM would be promoted to Assay 2. • 2. In some embodiments, the candidates increase neuronal cell health/growth in the presence of specific inhibitors of GGTase I. The ability of candidates to promote neurite extension will be measured on Neuro2A cells to model whole-cell activities important to synaptic connections and neuronal function. […] Neuroprotection afforded by candidates that have passed the first two assays will be determined on rat hippocampal neurons facing kainic acid induced damage. […] This confirmation will be determined in the SOD1 mouse model.

SOD1 mouse model of ALS = assay: SOD1 mouse model of ALS: survival and cat-walk gait (Assay 4); type: in vivo; conditions: for Run Duration, CNS-102-vehicle difference of averages / Stride Length, CNS-102-vehicle difference of averages / Swing Speed, CNS-102-vehicle difference of averages: cat-walk
Protocol: Analyses were conducted using PROC LIFEREG in SAS.
Additionally, three neurological function outcomes were chosen for analysis from those measured on a ‘cat-walk’ at irregular intervals over the duration of the study; stride length (cm), run duration (s), and swing speed (cm/s).
This non-random censoring of the treatment group data precluded using standard comparative statistical methods such as the t-test due the unverifiable compliance of the remaining data with required statistical test assumptions. Consequently, a Monte Carlo estimate of the p-value of the treatment differences was constructed using the bootstrap method.
Survival studies and behavioral tests will be performed in the SOD1 G93A model of ALS. This transgenic mouse harbors a point mutation (G93A), found in familial ALS, in the gene encoding for superoxide dismutase 1 (SOD1). This very well characterized mouse model is widely used in ALS research. […] Motor neuron death in the ventral horn of the spinal cord and loss of myelinated axons in the ventral motor roots lead to paralysis and muscle wasting. Mice initially develop normally and gain weight until approximately 100 days of age. At this point, weight loss (which is usually defined as the onset of disease), muscle weakness, and gradual paralysis start at the hind limbs and muscle wasting start to appear. […] This means that drug efficacy studies using this model can be performed within a relatively short time frame of 4-5 months. To rigorously test the efficacy of candidates in this mouse model, neurological scores are monitored, and motor scores, life span, body weight and mice tested in a battery of behavioral paradigms suitable for motor assessment.

[2] = system: neuro2A neuroblastoma cell lines; assay: Neurite outgrowth in Neuro2A cells challenged with GGTase I inhibitor GGTI-298 (Assay 2); type: cell-based, murine; conditions: @ 10 nM, GGTI-298 challenge
Protocol: Neurite outgrowth in neuro2A neuroblastoma cell lines has been widely used as a cellular model for compounds screening in the CNS drug discovery and research. IN some embodiments, the effects of CNS-102 analogs on neurite outgrowth is determined. Cells will be pre-treated with candidates and then subjected to a challenge with GGTase I inhibitor GGTI-298. Retinoic Acid will be added to start the differentiation of these cells. This will identify analogs that protect neurite outgrowth, which is known to be important for establishing synaptic connections and neuronal functions. This assay has a Z factor of 0.4 and a CV of 11% for CNS-102 at 10 nM to 1 μM.
(§1) The overall strategy, therefore, is to use a sequence of assays, each of which is targeted to address a specific aspect of the disease with the goal of identifying candidates having multiple therapeutic capabilities. These assays are chosen such that a failure to perform at any stage is expected to be fatal to the candidate's suitability as a viable ALS treatment. To this end, the following four therapeutic capabilities and corresponding assays were chosen as shown in the list below. The advancement criteria, as well as assay design where relevant, are also presented. • 1. In some embodiments, the candidates increase HSP70 expression in target cells. The initial screen (pass/fail, Assay 1a) and quantitative evaluation (EC50, Assay 1b) of candidates will use a HSP70 expression assay by Western blot on cellular extracts of treated Neuro2A cells. The screen, Assay 1a, is conducted at a single concentration, requiring a specific level of activity to pass into Assay 1b, the quantitative dose/response determination of the EC50. Only those candidates having an ECK, below 10 nM would be promoted to Assay 2. • 2. In some embodiments, the candidates increase neuronal cell health/growth in the presence of specific inhibitors of GGTase I. The ability of candidates to promote neurite extension will be measured on Neuro2A cells to model whole-cell activities important to synaptic connections and neuronal function. Candidates showing >200 cells with outgrowth would be promoted to Assay 3. • 3. In some embodiments, the candidates provide protection to nerve tissue from excitotoxins. Neuroprotection afforded by candidates that have passed the first two assays will be determined on rat hippocampal neurons facing kainic acid induced damage. This is the final animal model before the ALS disease model and candidates that provide >50% protection would be tested in the disease model. • 4. In some embodiments, the candidates increase median survival time by 25% and improve neurological performance compared to control. This confirmation will be determined in the SOD1 mouse model.

rat hippocampal neurons = assay: Rat neuroprotection model, kainic acid induced excitotoxic neuron loss in hippocampus (Assay 3); type: in vivo; conditions: for Rat Neuroprotection, % Protection: kainic acid rat model, 2 or 20 mg/kg
Protocol: Excitotoxicity has been considered as one of the major causes for neuron loss in ALS. A probable cause for excitotoxic neuron death is excess glutamate around the synapses, due to impaired glutamate reuptake capabilities. Intra-cerebral infusion of kainic acid is a well-established and robust model for excitotoxic neuron death that has been used to investigate excitotoxicity for over fifty years. Compounds are tested, e.g., at two concentrations and compare to a vehicle control in a model that quantifies neuron loss in the CA3 area of the hippocampus. Such tests can evaluate blood brain barrier penetration and select compounds that provide neuroprotection from excitotoxic damage.
as §1

GGTase I = GGTase I (Homo sapiens, UniProt P53609); assay: GGTase I activity detected by fluorescent peptide dansyl-GCVLL; type: biochemical
[3] = Bioavailability and brain penetration; conditions: in vivo
SOD1 G93A = conditions: pre-symptomatic administration or treatment at disease onset; cited from earlier work
cultured spinal neurons = conditions: low concentration (1 nM-100 nM); cited from earlier work

CC(=O)CC/C=C(\C)CC/C=C(\C)CC/C=C(\C)CCC=C(C)C [CNS-102, 5E,9E,13E-geranylgeranylacetone]
intrinsic water solubility (Water solubility): little intrinsic water solubility | expression of HSPs ([1]; murine Neuro2A cells, HSP70 and HSP90 found): increases expression of HSPs | SOD1 Mouse Model, Survival and clinical scores: increase in survival (SOD1 mouse model of ALS; SOD1 mouse model): 9% increase | Increase over vehicle (median survival time) (SOD1 mouse model of ALS; SOD1 mouse model, daily treatments, N=16/treatment): 9% | improvement in median survival, CNS-102 outperformed riluzole by (SOD1 mouse model of ALS; SOD1 mouse model, difference between drug groups not statistically significant at p=0.05): 50% | Run Duration, CNS-102-vehicle difference of averages (SOD1 mouse model of ALS; age P120 ± 1): -1.68 s | Stride Length, CNS-102-vehicle difference of averages (SOD1 mouse model of ALS; age P120 ± 1): 1.46 cm | Swing Speed, CNS-102-vehicle difference of averages (SOD1 mouse model of ALS; age P120 ± 1): 14.58 cm/s | Run Duration, CNS-102-vehicle difference of averages (SOD1 mouse model of ALS; age P124 ± 3): -1.49 s | Stride Length, CNS-102-vehicle difference of averages (SOD1 mouse model of ALS; age P124 ± 3): 1.87 cm | Swing Speed, CNS-102-vehicle difference of averages (SOD1 mouse model of ALS; age P124 ± 3): 11.70 cm/s | Neurite Outgrowth, Cell count relative to negative control [2]: 2.00 | time of peak protection (rat hippocampal neurons; hippocampus, locally injected kainic acid, following a single oral dose): 72 h | Rat Neuroprotection, % Protection (rat hippocampal neurons): 40% | expression of HSPs (rat hippocampal neurons; rat kainic acid induced neurotoxicity model, HSP70 in hippocampus and cerebral cortex, HSP60, HSP70, HSP90 upregulated): increases expression of HSPs | GGTase I activity (GGTase I): modulates GGTase I activity | bioavailability and brain penetration [3]: excellent

CC/C(=C\CCC(=O)C12CC3CC(CC(C3)C1)C2)CC/C=C(\C)CC/C=C(\C)CCC=C(C)C [CNS-G001]
HSP70 Expression, HSP70 by Western Blot [1]: 2.00 × PBS | Neurite Outgrowth, Cell count relative to negative control [2]: 1.79 | Rat Neuroprotection, % Protection (rat hippocampal neurons): 37%

CCCCCNC(=O)OC(C)CC/C=C(\C)CC/C=C(\C)CCC=C(C)C (stereo not drawn) [CNS-G002]
Neurite Outgrowth, Cell count relative to negative control [2]: 1.79

CC(=O)CC/C=C(\C)CC/C=C(\C)CC/C=C(\C)CC/C=C(\C)CCC=C(C)C [CNS-G003]
Neurite Outgrowth, Cell count relative to negative control [2]: 2.74 | Rat Neuroprotection, % Protection (rat hippocampal neurons): 82%

CC(C)=CCC/C(C)=C/CC/C(C)=C/CC/C(C)=C/COC(=O)C1CCCCC1 [CNS-G004]
Neurite Outgrowth, Cell count relative to negative control [2]: 2.61 | Rat Neuroprotection, % Protection (rat hippocampal neurons): 76%

CC(C)=CCC/C(C)=C/CC/C(C)=C/CC/C(C)=C/CC1CCCCC1=O (stereo not drawn) [CNS-G005]
HSP70 Expression, HSP70 by Western Blot [1]: 2.78 × PBS | Neurite Outgrowth, Cell count relative to negative control [2]: 2.28 | Rat Neuroprotection, % Protection (rat hippocampal neurons): 83%

[O-][n+]1cccc(/C(Cl)=N/OC[C@H](O)CN2CCCCC2)c1 [arimoclomol]
extension of life span (SOD1 G93A): approximately 5 weeks

geranylgeranyl acetone [GGA]
proteasome inhibitor induced neurotoxicity (cultured spinal neurons): reduce proteasome inhibitor induced neurotoxicity

Reference: patent US9119808B1, “Treating neurodegenerative diseases with GGA or a derivative thereof” (COYOTE PHARMACEUTICALS, INC., priority 2012, dated 2015)
